Where “and” joins values, the source holds several entries; their conditions need not be identical. Equal entries are not always repeated. One block for each molecule: values may come before it.
Test: solvent given as SMILES

- absorption maximum (in ClCCl): 381 nm
SMILES: N#Cc1ccc(-c2cn3ccc[n+]3[n-]2)cc1

- absorption maximum (in ClC(Cl)Cl): 420 nm
SMILES: C(#Cc1ccncc1)C(C#Cc1ccncc1)=Cc1ccc(C=C(C#Cc2ccncc2)C#Cc2ccncc2)cc1

- absorption maximum (in C1CCCCC1): 413 nm
- absorption maximum (in C1CCOC1): 413 nm
- absorption maximum (in CC#N): 410 nm
- absorption maximum (in ClC(Cl)Cl): 413 nm
- absorption maximum (in c1ccccc1): 415 nm
SMILES: Cc1cc(C)c(B(c2c(C)cc(C)cc2C)c2cc3ccc4ccccc4c3c3c2ccc2ccccc23)c(C)c1

- absorption maximum (in C1CCOC1): 342 nm
- absorption maximum (in CCCCCC): 338 nm
- absorption maximum (in CCO): 342 nm
- absorption maximum (in CS(C)=O): 345 nm
SMILES: COc1ccc2cc(-c3ccc(C)cc3)c(=O)oc2c1

- absorption maximum (in C1CCOC1): 386 nm
SMILES: CC(=O)c1ccc(-c2cnc3nn4ccccc4c3c2)cc1

- absorption maximum (in ClCCl): 464 nm
SMILES: CN(C)c1ccc(C2=C3C=C(c4ccc(C=O)cc4)S[C@]34c3ccccc3[C@H]2c2ccccc24)cc1

- absorption maximum (in ClCCl): 414 nm
SMILES: COc1ccc2c(c1)c1cc(OC)ccc1c1c2c2c(C(=O)NC(C)(C)C)ccc(C(=O)NC(C)(C)C)c2c2c3ccc(OC)cc3c3cc(OC)ccc3c21

- absorption maximum (in ClC(Cl)Cl): 338 nm
- absorption maximum (in ClCCl): 339 nm
SMILES: O=[N+]([O-])c1ccc(C#Cc2ccc3ccccc3c2)cc1

- absorption maximum (in CCCCCC): 305 nm
SMILES: C/C=C/c1ccc(OC)cc1

- absorption maximum (in ClC(Cl)Cl): 688 nm
- absorption maximum (in ClCCl): 688 nm
SMILES: COc1ccc(C2=[N+]3C(=Nc4c(-c5ccccc5)cc(-c5ccc(OC)cc5)n4[B-]3(F)F)C(c3ccccc3)=C2)cc1

- absorption maximum (in CCO): 590 nm
- absorption maximum (in O): 590 nm
SMILES: CC/[NH+]=c1\cc2oc3cc(NCCO)c4ccccc4c3nc-2cc1C

- absorption maximum (in CC#N): 532 nm
- absorption maximum (in CCCCCC): 559 nm
- absorption maximum (in CO): 552 nm
SMILES: COc1ccc2c(c1)N(c1ccccc1-c1ccccc1)c1cc3c(cc1=N2)Oc1c(cc(C(C)(C)C)cc1C(C)(C)C)N=3

- absorption maximum (in O): 428 nm
SMILES: N#Cc1c(N2CCCC2)cc(-c2ccccc2)c2c1-c1cccc3cccc-2c13

- absorption maximum (in ClCCl): 342 nm
SMILES: O=[N+]([O-])c1ccc(O)c(-c2nc3c(c4c2-c2ccccc2CC4)-c2ccccc2CC3)c1

Second part, the molecule before the results:

SMILES: c1ccc2c(-n3c4ccccc4c4ccccc43)cccc2c1
- absorption maximum (in C1CCCCC1): 321 nm
- absorption maximum (in C1CCOC1): 323 nm
- absorption maximum (in CC#N): 322 nm
- absorption maximum (in CCO): 325 nm
- absorption maximum (in CCOC(C)=O): 323 nm
- absorption maximum (in CCOCC): 322 nm
- absorption maximum (in CO): 323 nm
- absorption maximum (in Cc1ccccc1): 321 nm
- absorption maximum (in ClC(Cl)Cl): 324 nm

SMILES: O=[N+]([O-])c1ccc(/C2=C3N=C(C(c4ccccc4)=C/3c3ccccc3)/C(c3ccc([N+](=O)[O-])cc3)=c3\[nH]/c(c(-c4ccccc4)c3-c3ccccc3)=C(/c3ccc([N+](=O)[O-])cc3)C3=N/C(=C(/c4ccc([N+](=O)[O-])cc4)c4[nH]c2c(-c2ccccc2)c4-c2ccccc2)C(c2ccccc2)=C3c2ccccc2)cc1
- absorption maximum (in ClCCl): 711 nm

SMILES: CCC1(CC)c2cc(B(c3c(C)cc(C)cc3C)c3c(C)cc(C)cc3C)ccc2-c2c1c1c(c3c2C(CC)(CC)c2cc(N(c4ccccc4)c4ccccc4)ccc2-3)C(CC)(CC)c2cc(B(c3c(C)cc(C)cc3C)c3c(C)cc(C)cc3C)ccc2-1
- absorption maximum (in C1CCOC1): 362 nm
- absorption maximum (in CC#N): 359 nm
- absorption maximum (in CC(C)=O): 360 nm
- absorption maximum (in CCCCCC): 361 nm
- absorption maximum (in CCCO): 360 nm
- absorption maximum (in CCO): 360 nm
- absorption maximum (in Cc1ccccc1): 363 nm
- absorption maximum (in ClC(Cl)Cl): 364 nm

SMILES: CCCCCCCCN1C(=O)c2ccc3c4c(-c5ccc6c(c5)c5ccccc5n6-c5ccccc5)cc5c6c(cc(-c7ccc8c(c7)c7ccccc7n8-c7ccccc7)c(c7ccc(c2c37)C1=O)c64)C(=O)N(CCCCCCCC)C5=O
- absorption maximum (in ClC(Cl)Cl): 563 nm

SMILES: CC1(C)C2=C3C=C4C5=[N+](CCC4OC3CCN2c2ccc(CC(=O)NCCCCCCO)cc21)c1ccc(S(=O)(=O)[O-])cc1C5(C)C (stereo not given)
- absorption maximum (in O): 558 nm

SMILES: O=S(=O)([O-])c1cc(S(=O)(=O)Cl)ccc1C1=c2cc3c4c(c2Oc2c1cc1c5c2CCCN5CCC1)CCC[N+]=4CCC3
- absorption maximum (in O): 589 nm

SMILES: CCN(CC)c1ccc(/C=C/c2cc(/C=C/c3ccc(N(CC)CC)cc3)nc(N)n2)cc1
- absorption maximum (in Cc1ccccc1): 418 nm
- absorption maximum (in ClC(Cl)Cl): 433 nm

SMILES: CCCCN1C(=O)c2cccc3c([O-])c(/C=C/c4sc5ccccc5[n+]4CC)cc(c23)C1=O
- absorption maximum (in C1CCOC1): 586.75 nm
- absorption maximum (in CC#N): 564.61 nm
- absorption maximum (in CC(C)=O): 572.49 nm
- absorption maximum (in CCO): 555.68 nm
- absorption maximum (in CO): 545.83 nm
- absorption maximum (in CS(C)=O): 566.81 nm
- absorption maximum (in Cc1ccccc1): 607.26 nm
- absorption maximum (in ClC(Cl)Cl): 589.53 nm
- absorption maximum (in ClCCl): 584.78 nm
- absorption maximum (in O): 489.49 nm

SMILES: c1ccc2c(-c3ccc(-n4c5ccccc5c5ccccc54)cc3)c3c(nc2c1)-c1cc2c(cc1CC3)-c1nc3ccccc3c(-c3ccc(-n4c5ccccc5c5ccccc54)cc3)c1CC2
- absorption maximum (in ClC(Cl)Cl): 377 nm

SMILES: O=C1c2ccccc2C2=Cc3cccc[n+]3[B-](F)(F)N12
- absorption maximum (in CCO): 391 nm
- absorption maximum (in Cc1ccccc1): 399 nm
- absorption maximum (in ClCCl): 396 nm and 385 nm

SMILES: C(=C\c1cc(-c2ccccc2)c(/C=C/c2ccc(N(c3ccccc3)c3ccccc3)cc2)cc1-c1ccccc1)/c1ccc(N(c2ccccc2)c2ccccc2)cc1
- absorption maximum (in ClCCl): 415 nm

SMILES: O=c1c2cc(F)c(N3CCOCC3)cc2oc2cc(N3CCOCC3)c(F)cc12
- absorption maximum (in CCO): 344 nm

SMILES: Cc1ccc(C(=O)/C=C/c2ccc(N(C)C)cc2)cc1
- absorption maximum (in C1CCOC1): 404 nm
- absorption maximum (in CC#N): 411 nm
- absorption maximum (in CC(=O)O): 427 nm
- absorption maximum (in CC(C)=O): 405 nm
- absorption maximum (in CCO): 422 nm
- absorption maximum (in CN(C)C=O): 419 nm
- absorption maximum (in CO): 419 nm
- absorption maximum (in Cc1ccccc1): 404 nm
- absorption maximum (in ClC(Cl)Cl): 412 nm
- absorption maximum (in c1ccccc1): 404 nm

— the Deep4Chem optical property database
